Patent US8372863B2, “Tetrahydro-1H-pyrrolo fused pyridones” (Merck Sharp & Dohme Corp., priority 2008, dated 2013)
Where a name gives a salt, the structure may show the parent alone.

Target: PHD2 (Homo sapiens, UniProt Q9GZT9)
Assay: PHD2 / HIF-1α peptide hydroxylation assay with time resolved fluorescence readout (PHD2 binding activity)
Format: biochemical
Details: FLAG-tagged full length PHD2; 0.2 μM 2-oxoglutarate, 0.5 μM HIF-1α peptide; read-out: PHD2 Activity (PHD2 binding activity expressed as IC50)

PHD2, sequence (Q9GZT9 whole entry): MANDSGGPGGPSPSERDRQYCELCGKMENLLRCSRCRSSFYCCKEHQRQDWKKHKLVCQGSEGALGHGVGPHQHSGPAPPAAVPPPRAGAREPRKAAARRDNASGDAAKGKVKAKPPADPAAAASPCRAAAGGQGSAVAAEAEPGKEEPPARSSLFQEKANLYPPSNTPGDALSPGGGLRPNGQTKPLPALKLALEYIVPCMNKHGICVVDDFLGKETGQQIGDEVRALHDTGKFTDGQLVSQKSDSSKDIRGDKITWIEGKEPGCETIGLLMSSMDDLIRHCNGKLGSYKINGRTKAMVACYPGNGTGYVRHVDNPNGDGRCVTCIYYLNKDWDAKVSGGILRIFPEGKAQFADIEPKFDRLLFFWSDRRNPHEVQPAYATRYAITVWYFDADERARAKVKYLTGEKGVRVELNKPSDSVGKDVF

IC50 [nM]	Structure (SMILES)
< 10	O=C(O)CNC(=O)c1c(O)c2c(n(Cc3cccc(-c4cccc(Cl)c4)c3)c1=O)CN(C(=O)c1cscn1)C2 [Example 50, N-{[1-[(3′-chlorobiphenyl-3-yl)methyl]-4-hydroxy-2-oxo-6-(1,3-thiazol-4-ylcarbonyl)-2,5,6,7-tetrahydro-1H-pyrrolo[3,4-b]pyridin-3-yl]carbonyl}glycine]
< 10	O=C(O)CNC(=O)c1c(O)c2c(n(Cc3cccc(-c4ccncc4)c3)c1=O)CN(C(=O)c1cscn1)C2 [Example 51, N-{[4-hydroxy-2-oxo-1-(3-pyridin-4-ylbenzyl)-6-(1,3-thiazol-3-ium-4-ylcarbonyl)-2,5,6,7-tetrahydro-1H-pyrrolo[3,4-b]pyridin-3-yl]carbonyl}glycine trifluoroacetate]
< 10	O=C(O)CNC(=O)c1c(O)c2c(n(Cc3cccc(-c4cccnc4)c3)c1=O)CN(C(=O)c1cscn1)C2 [Example 52, N-{[4-hydroxy-2-oxo-1-(3-pyridin-3-ylbenzyl)-6-(1,3-thiazol-3-ium-4-ylcarbonyl)-2,5,6,7-tetrahydro-1H-pyrrolo[3,4-b]pyridin-3-yl]carbonyl}glycine trifluoroacetate]
< 10	O=C(O)CNC(=O)c1c(O)c2c(n(Cc3cccc(-c4ccc(F)nc4)c3)c1=O)CN(C(=O)c1cscn1)C2 [Example 53, N-{[1-[3-(6-fluoropyridin-3-yl)benzyl]-4-hydroxy-2-oxo-6-(1,3-thiazo1-4-ylcarbonyl)-2,5,6,7-tetrahydro-1H-pyrrolo[3,4-b]pyridin-3-yl]carbonyl}glycine]
< 10	O=C(O)CNC(=O)c1c(O)c2c(n(Cc3ccccc3)c1=O)CN(C(=O)c1cscn1)C2 [Example 54, N-{[1-benzyl-4-hydroxy-2-oxo-6-(1,3-thiazol-4-ylcarbonyl)-2,5,6,7-tetrahydro-1H-pyrrolo[3,4-b]pyridin-3-yl]carbonyl}glycine]
< 10	N#Cc1ccccc1Cn1c2c(c(O)c(C(=O)NCC(=O)O)c1=O)CN(C(=O)c1cscn1)C2 [Example 56, N-{[1-(2-cyanobenzyl)-4-hydroxy-2-oxo-6-(1,3-thiazol-4-ylcarbonyl)-2,5,6,7-tetrahydro-1H-pyrrolo[3,4-b]pyridin-3-yl]carbonyl}glycine]
